Reference: patent EP0429304A2, “Pyridone-carboxylic acid derivatives and their use as veterinary medicines” (SHIONOGI SEIYAKU KABUSHIKI KAISHA trading under the name of …, priority 1989, dated 1991)
Read-outs that look alike come from different tables or passages of the source.

Legend:
[1] = test system: Mycoplasma gallisepticum (MG) S6; assay: In vitro sensitivity test (liquid dilution method); assay type: cell-based; details: 37°C, 7 days
Experimental: (§1) Survey of the sensitivity of the compound (I) to various strains of microorganisms was performed by a liquid dilution method […] an agar dilution method, in which the bacteria used were of animal origin and included the following strains (15 strains out of 11 bacteria): Chicken-origin strain: Mycoplasma gallisepticum (MG), Mycoplasma synoviae (MS), Hemophilus paragallinarum (H.pg) and Escherichia coli (E.coli); Pig-origin strain: Mycoplasma hyopneumoniae (Mh), Hemophilus pleuropneumonia (H.pp) and Bordetella bronchiseptica (B.br); Fish-origin strain: Pasteurella piscicida (P.pis) and Streptococcus sp (Str.sp); others: Escherichia coli (E. coli), Salmonella typhimurium (S.typhi) and Staphylococcus aureus (S.au).
(§2) Of these bacteria, the strains belonging to MG, MS and Mh were cultured at 37°C for 7 days by a liquid dilution method, of which the culture medium comprised: 12 % horse-serum added "PPLO" (agar manufactured by Difco) medium for MG; 12 % pig-serum, 0.01 % βNAD (nicotinamide adenine dinucleotide) added Frey medium for MS; 0.5 % lactoalbumin added Hank's solution, 10 % horse-serum, 0.5 % yeast extract (25 %) for Mh, and the agar dilution method was applied to the strains belonging to H.pg, H.pp, S.typhi, E.coli, S.au and B.br. Specifically, the H.pg strain was cultured in a 5 % chicken-serum added chicken bouillon medium and the H.pp strain was cultured in a heart infusion agar added with 10 % sheep defibered blood and 0.05 % βNAD. In case of the H.pg and P.pp strains, observation was made after cultivation at 37°C for 20 hours under 10 % CO₂. Mueller Hinton agar (Difco) was used for the strains belonging to S.typhi, E.coli, S.au and B.br, and observation was made after cultivation at 37°C for 20 to 24 hours. P.pis and Str.sp, both being of fish-origin, were respectively cultured at 25°C for 40 to 48 hours in a 1.5 % NaCl added heart infusion agar and in a sensitive disk medium.

[2] = test system: Mycoplasma gallisepticum (MG) T-7-T, TS-resistant strain isolated from the field; assay: In vitro sensitivity test (liquid dilution method); assay type: cell-based; details: 37°C, 7 days
Experimental: as §1, §2

[3] = test system: Mycoplasma hyopneumoniae (Mh) ST-11; assay: In vitro sensitivity test (liquid dilution method); assay type: cell-based; details: 37°C, 7 days
Experimental: as §1, §2

[4] = test system: Bordetella bronchiseptica (B.br) ABU-1; assay: In vitro sensitivity test (agar dilution method); assay type: cell-based; details: 37°C, 20 to 24 hours
Experimental: as §1, §2

[5] = test system: Escherichia coli (E.coli) E-17, chicken-origin strain isolated from the field; assay: In vitro sensitivity test (agar dilution method); assay type: cell-based; details: 37°C, 20 to 24 hours
Experimental: as §1, §2

[6] = test system: Escherichia coli (E.coli) JC-2; assay: In vitro sensitivity test (agar dilution method); assay type: cell-based; details: 37°C, 20 to 24 hours
Experimental: as §1, §2

[7] = test system: Hemophilus paragallinarum (H.pg) 221; assay: In vitro sensitivity test (agar dilution method); assay type: cell-based
Experimental: as §1, §2

[8] = test system: Hemophilus paragallinarum (H.pg) S-1; assay: In vitro sensitivity test (agar dilution method); assay type: cell-based
Experimental: as §1, §2

[9] = test system: Hemophilus pleuropneumonia (H.pp) M-1; assay: In vitro sensitivity test (agar dilution method); assay type: cell-based; details: 37°C, 20 hours, 10 % CO₂
Experimental: as §1, §2

[10] = test system: Salmonella typhimurium (S.typhi) 13311; assay: In vitro sensitivity test (agar dilution method); assay type: cell-based; details: 37°C, 20 to 24 hours
Experimental: as §1, §2

[11] = test system: Staphylococcus aureus (S.au) 209P; assay: In vitro sensitivity test (agar dilution method); assay type: cell-based; details: 37°C, 20 to 24 hours
Experimental: as §1, §2

[12] = test system: Pasteurella piscicida (P.pis) No. 2; assay: In vitro sensitivity test; assay type: cell-based; details: 25°C, 40 to 48 hours
Experimental: as §1, §2

[13] = test system: Streptococcus sp (Str.sp) SNO6119; assay: In vitro sensitivity test; assay type: cell-based; details: 25°C, 40 to 48 hours
Experimental: as §1, §2

[14] = test system: TS-resistant strain of MG; assay type: in vivo, chicken; details: for Infectious index Left air sack + / Infectious index Left air sack ++ / Infectious index Left air sack +++ / Infectious index Left air sack - / Infectious index Right air sack + / Infectious index Right air sack ++ / Infectious index Right air sack +++ / Infectious index Right air sack -: count of fowl; for Infectious index Left air sack + / Infectious index Left air sack ++ / Infectious index Left air sack +++ / Infectious index Left air sack - / Infectious index Right air sack + / Infectious index Right air sack ++ / Infectious index Right air sack +++ / Infectious index Right air sack - / Number of fowl having air sack lesions: 10-days chicken
[15] = agar dilution, 37°C, 20 hours, 10 % CO₂
[16] = oral 3.13 mg/kg, 3.0 x 10³ CFU/fowl
[17] = oral 6.25 mg/kg, 3.0 x 10³ CFU/fowl
[18] = oral 12.5 mg/kg, 3.0 x 10³ CFU/fowl
[19] = oral 3.13 mg/kg, 1.2 x 10³ CFU/fowl
[20] = oral 6.25 mg/kg, 1.2 x 10³ CFU/fowl
[21] = oral 12.5 mg/kg, 1.2 x 10³ CFU/fowl
[22] = oral 25.0 mg/kg, 1.2 x 10³ CFU/fowl

CN[C@H]1CCC[C@H]2CN(c3c(F)cc4c(=O)c(C(=O)O)cn(C5CC5)c4c3F)CC[C@H]21.Cl (relative stereo) [I-7, 1-cyclopropyl-6,8-difluoro-7-[(1R*,6R*,7S*)-7-methylamino-3-azabicyclo[4.4.0]decan-3-yl]-1,4-dihydro-4-oxo-3-quinolinecarboxylic acid hydrochloride]
4: Number of fowl having air sack lesions [14, 16]
3.13 µg/mL: In vitro Sensitivity Test Str.sp SNO6119 [13]
6.25 µg/mL: In vitro Sensitivity Test B.br ABU-1 [4] | In vitro Sensitivity Test P.pis No. 2 [12]
1: Infectious index Right air sack +++ [14, 16] | Infectious index Right air sack - [14, 16] | Infectious index Left air sack + [14, 17] | Infectious index Right air sack + [14, 17] | Infectious index Right air sack +++ [14, 17] | Infectious index Right air sack ++ [14, 18]
0.05 µg/mL: In vitro Sensitivity Test MG S6 [1]
0.1 µg/mL: In vitro Sensitivity Test Mh ST-11 [3]
>3.13 µg/mL: In vitro Sensitivity Test H.pg 221 [7, 15] | In vitro Sensitivity Test H.pg S-1 [8, 15]
0.78 µg/mL: In vitro Sensitivity Test H.pp M-1 [9] | In vitro Sensitivity Test S.au 209P [11]
0.39 µg/ml: In vitro Sensitivity Test E.coli E-17 [5]
0.2 µg/mL: In vitro Sensitivity Test MG T-7-T [2] | In vitro Sensitivity Test S.typhi 13311 [10]
3: Infectious index Right air sack ++ [14, 16] | Infectious index Right air sack ++ [14, 17]
0: Infectious index Left air sack + [14, 16] | Infectious index Left air sack ++ [14, 16] | Infectious index Left air sack +++ [14, 16] | Infectious index Right air sack + [14, 16] | Infectious index Left air sack ++ [14, 17] | Infectious index Left air sack +++ [14, 17] | Infectious index Right air sack - [14, 17] | Infectious index Left air sack + [14, 18] | Infectious index Left air sack ++ [14, 18] | Infectious index Left air sack +++ [14, 18] | Infectious index Right air sack - [14, 18]
0.39 µg/mL: In vitro Sensitivity Test E.coli JC-2 [6]
2: Infectious index Right air sack + [14, 18] | Infectious index Right air sack +++ [14, 18]
5: Infectious index Left air sack - [14, 16] | Infectious index Left air sack - [14, 17] | Infectious index Left air sack - [14, 18] | Number of fowl having air sack lesions [14, 17] | Number of fowl having air sack lesions [14, 18]

CN[C@@H]1CCC[C@H]2[C@@H]1CCN2c1c(F)cc2c(=O)c(C(=O)O)cn(C3CC3)c2c1F (relative stereo) [I-3]
0.1 µg/mL: In vitro Sensitivity Test E.coli JC-2 [6] | In vitro Sensitivity Test S.typhi 13311 [10]
5: Infectious index Left air sack - [14, 17] | Number of fowl having air sack lesions [14, 17]
0.2 µg/mL: In vitro Sensitivity Test H.pp M-1 [9] | In vitro Sensitivity Test S.au 209P [11]
0.025 µg/mL: In vitro Sensitivity Test MG S6 [1]
2: Infectious index Right air sack - [14, 16] | Infectious index Right air sack + [14, 17] | Infectious index Right air sack + [14, 18] | Infectious index Right air sack - [14, 18]
0: Infectious index Left air sack + [14, 16] | Infectious index Left air sack +++ [14, 16] | Infectious index Right air sack + [14, 16] | Infectious index Right air sack +++ [14, 16] | Infectious index Left air sack + [14, 17] | Infectious index Left air sack ++ [14, 17] | Infectious index Left air sack +++ [14, 17] | Infectious index Right air sack +++ [14, 17] | Infectious index Right air sack - [14, 17] | Infectious index Left air sack ++ [14, 18] | Infectious index Left air sack +++ [14, 18] | Infectious index Right air sack +++ [14, 18]
4: Infectious index Left air sack - [14, 16] | Infectious index Left air sack - [14, 18]
6.25 µg/mL: In vitro Sensitivity Test B.br ABU-1 [4]
1: Infectious index Left air sack ++ [14, 16] | Infectious index Left air sack + [14, 18] | Infectious index Right air sack ++ [14, 18]
0.1 µg/ml: In vitro Sensitivity Test E.coli E-17 [5]
1.56 µg/mL: In vitro Sensitivity Test H.pg 221 [7] | In vitro Sensitivity Test H.pg S-1 [8] | In vitro Sensitivity Test P.pis No. 2 [12]
0.78 µg/mL: In vitro Sensitivity Test Str.sp SNO6119 [13]
0.05 µg/mL: In vitro Sensitivity Test MG T-7-T [2] | In vitro Sensitivity Test Mh ST-11 [3]
3: Infectious index Right air sack ++ [14, 16] | Infectious index Right air sack ++ [14, 17] | Number of fowl having air sack lesions [14, 16] | Number of fowl having air sack lesions [14, 18]

CNC[C@@]12CCC[C@@H]1CN(c1cc3c(cc1F)c(=O)c(C(=O)O)cn3C1CC1)C2 (relative stereo) [I-1, 7-[(1R*,5S*)-1-methylaminomethyl-3-azabicyclo[3.3.0]octan-3-yl]-1-cyclopropyl-6-fluoro-1,4-dihydro-4-oxo-3-quinolinecarboxylic acid]
0.2 µg/mL: In vitro Sensitivity Test E.coli JC-2 [6] | In vitro Sensitivity Test S.typhi 13311 [10]
0.0125 µg/mL: In vitro Sensitivity Test MG S6 [1]
nearly equal potency to ERFX: antimicrobial activity compared with ERFX ([14]; in vivo, po)
5: Infectious index Left air sack - [14, 20] | Infectious index Left air sack - [14, 21] | Infectious index Left air sack - [14, 22] | Infectious index Right air sack - [14, 22] | Number of fowl having air sack lesions [14, 19]
4: Infectious index Left air sack - [14, 19] | Infectious index Right air sack - [14, 21] | Number of fowl having air sack lesions [14, 20]
0.2 µg/ml: In vitro Sensitivity Test E.coli E-17 [5]
0.39 µg/mL: In vitro Sensitivity Test H.pp M-1 [9]
0: Infectious index Left air sack ++ [14, 19] | Infectious index Left air sack +++ [14, 19] | Infectious index Right air sack - [14, 19] | Infectious index Left air sack + [14, 20] | Infectious index Left air sack ++ [14, 20] | Infectious index Left air sack +++ [14, 20] | Infectious index Right air sack +++ [14, 20] | Infectious index Left air sack + [14, 21] | Infectious index Left air sack ++ [14, 21] | Infectious index Left air sack +++ [14, 21] | Infectious index Right air sack + [14, 21] | Infectious index Right air sack +++ [14, 21] | Infectious index Left air sack + [14, 22] | Infectious index Left air sack ++ [14, 22] | Infectious index Left air sack +++ [14, 22] | Infectious index Right air sack + [14, 22] | Infectious index Right air sack ++ [14, 22] | Infectious index Right air sack +++ [14, 22] | Number of fowl having air sack lesions [14, 22]
0.78 µg/mL: In vitro Sensitivity Test H.pg 221 [7, 15] | In vitro Sensitivity Test H.pg S-1 [8, 15] | In vitro Sensitivity Test P.pis No. 2 [12] | In vitro Sensitivity Test Str.sp SNO6119 [13]
12.5 µg/mL: In vitro Sensitivity Test B.br ABU-1 [4]
1: Infectious index Left air sack + [14, 19] | Infectious index Right air sack + [14, 19] | Infectious index Right air sack +++ [14, 19] | Infectious index Right air sack ++ [14, 20] | Infectious index Right air sack - [14, 20] | Infectious index Right air sack ++ [14, 21] | Number of fowl having air sack lesions [14, 21]
0.025 µg/mL: In vitro Sensitivity Test MG T-7-T [2] | In vitro Sensitivity Test S.au 209P [11]
3: Infectious index Right air sack ++ [14, 19] | Infectious index Right air sack + [14, 20]
